A word on the inhibition: it is the change of the read-out against control, counted positive when it falls. The low end stands for a response near the control, the high end for a response far below the control. What is called IC50 is the concentration needed to halve the response being measured.

DNA-dependent protein kinase catalytic subunit, sequence (P78527 whole entry): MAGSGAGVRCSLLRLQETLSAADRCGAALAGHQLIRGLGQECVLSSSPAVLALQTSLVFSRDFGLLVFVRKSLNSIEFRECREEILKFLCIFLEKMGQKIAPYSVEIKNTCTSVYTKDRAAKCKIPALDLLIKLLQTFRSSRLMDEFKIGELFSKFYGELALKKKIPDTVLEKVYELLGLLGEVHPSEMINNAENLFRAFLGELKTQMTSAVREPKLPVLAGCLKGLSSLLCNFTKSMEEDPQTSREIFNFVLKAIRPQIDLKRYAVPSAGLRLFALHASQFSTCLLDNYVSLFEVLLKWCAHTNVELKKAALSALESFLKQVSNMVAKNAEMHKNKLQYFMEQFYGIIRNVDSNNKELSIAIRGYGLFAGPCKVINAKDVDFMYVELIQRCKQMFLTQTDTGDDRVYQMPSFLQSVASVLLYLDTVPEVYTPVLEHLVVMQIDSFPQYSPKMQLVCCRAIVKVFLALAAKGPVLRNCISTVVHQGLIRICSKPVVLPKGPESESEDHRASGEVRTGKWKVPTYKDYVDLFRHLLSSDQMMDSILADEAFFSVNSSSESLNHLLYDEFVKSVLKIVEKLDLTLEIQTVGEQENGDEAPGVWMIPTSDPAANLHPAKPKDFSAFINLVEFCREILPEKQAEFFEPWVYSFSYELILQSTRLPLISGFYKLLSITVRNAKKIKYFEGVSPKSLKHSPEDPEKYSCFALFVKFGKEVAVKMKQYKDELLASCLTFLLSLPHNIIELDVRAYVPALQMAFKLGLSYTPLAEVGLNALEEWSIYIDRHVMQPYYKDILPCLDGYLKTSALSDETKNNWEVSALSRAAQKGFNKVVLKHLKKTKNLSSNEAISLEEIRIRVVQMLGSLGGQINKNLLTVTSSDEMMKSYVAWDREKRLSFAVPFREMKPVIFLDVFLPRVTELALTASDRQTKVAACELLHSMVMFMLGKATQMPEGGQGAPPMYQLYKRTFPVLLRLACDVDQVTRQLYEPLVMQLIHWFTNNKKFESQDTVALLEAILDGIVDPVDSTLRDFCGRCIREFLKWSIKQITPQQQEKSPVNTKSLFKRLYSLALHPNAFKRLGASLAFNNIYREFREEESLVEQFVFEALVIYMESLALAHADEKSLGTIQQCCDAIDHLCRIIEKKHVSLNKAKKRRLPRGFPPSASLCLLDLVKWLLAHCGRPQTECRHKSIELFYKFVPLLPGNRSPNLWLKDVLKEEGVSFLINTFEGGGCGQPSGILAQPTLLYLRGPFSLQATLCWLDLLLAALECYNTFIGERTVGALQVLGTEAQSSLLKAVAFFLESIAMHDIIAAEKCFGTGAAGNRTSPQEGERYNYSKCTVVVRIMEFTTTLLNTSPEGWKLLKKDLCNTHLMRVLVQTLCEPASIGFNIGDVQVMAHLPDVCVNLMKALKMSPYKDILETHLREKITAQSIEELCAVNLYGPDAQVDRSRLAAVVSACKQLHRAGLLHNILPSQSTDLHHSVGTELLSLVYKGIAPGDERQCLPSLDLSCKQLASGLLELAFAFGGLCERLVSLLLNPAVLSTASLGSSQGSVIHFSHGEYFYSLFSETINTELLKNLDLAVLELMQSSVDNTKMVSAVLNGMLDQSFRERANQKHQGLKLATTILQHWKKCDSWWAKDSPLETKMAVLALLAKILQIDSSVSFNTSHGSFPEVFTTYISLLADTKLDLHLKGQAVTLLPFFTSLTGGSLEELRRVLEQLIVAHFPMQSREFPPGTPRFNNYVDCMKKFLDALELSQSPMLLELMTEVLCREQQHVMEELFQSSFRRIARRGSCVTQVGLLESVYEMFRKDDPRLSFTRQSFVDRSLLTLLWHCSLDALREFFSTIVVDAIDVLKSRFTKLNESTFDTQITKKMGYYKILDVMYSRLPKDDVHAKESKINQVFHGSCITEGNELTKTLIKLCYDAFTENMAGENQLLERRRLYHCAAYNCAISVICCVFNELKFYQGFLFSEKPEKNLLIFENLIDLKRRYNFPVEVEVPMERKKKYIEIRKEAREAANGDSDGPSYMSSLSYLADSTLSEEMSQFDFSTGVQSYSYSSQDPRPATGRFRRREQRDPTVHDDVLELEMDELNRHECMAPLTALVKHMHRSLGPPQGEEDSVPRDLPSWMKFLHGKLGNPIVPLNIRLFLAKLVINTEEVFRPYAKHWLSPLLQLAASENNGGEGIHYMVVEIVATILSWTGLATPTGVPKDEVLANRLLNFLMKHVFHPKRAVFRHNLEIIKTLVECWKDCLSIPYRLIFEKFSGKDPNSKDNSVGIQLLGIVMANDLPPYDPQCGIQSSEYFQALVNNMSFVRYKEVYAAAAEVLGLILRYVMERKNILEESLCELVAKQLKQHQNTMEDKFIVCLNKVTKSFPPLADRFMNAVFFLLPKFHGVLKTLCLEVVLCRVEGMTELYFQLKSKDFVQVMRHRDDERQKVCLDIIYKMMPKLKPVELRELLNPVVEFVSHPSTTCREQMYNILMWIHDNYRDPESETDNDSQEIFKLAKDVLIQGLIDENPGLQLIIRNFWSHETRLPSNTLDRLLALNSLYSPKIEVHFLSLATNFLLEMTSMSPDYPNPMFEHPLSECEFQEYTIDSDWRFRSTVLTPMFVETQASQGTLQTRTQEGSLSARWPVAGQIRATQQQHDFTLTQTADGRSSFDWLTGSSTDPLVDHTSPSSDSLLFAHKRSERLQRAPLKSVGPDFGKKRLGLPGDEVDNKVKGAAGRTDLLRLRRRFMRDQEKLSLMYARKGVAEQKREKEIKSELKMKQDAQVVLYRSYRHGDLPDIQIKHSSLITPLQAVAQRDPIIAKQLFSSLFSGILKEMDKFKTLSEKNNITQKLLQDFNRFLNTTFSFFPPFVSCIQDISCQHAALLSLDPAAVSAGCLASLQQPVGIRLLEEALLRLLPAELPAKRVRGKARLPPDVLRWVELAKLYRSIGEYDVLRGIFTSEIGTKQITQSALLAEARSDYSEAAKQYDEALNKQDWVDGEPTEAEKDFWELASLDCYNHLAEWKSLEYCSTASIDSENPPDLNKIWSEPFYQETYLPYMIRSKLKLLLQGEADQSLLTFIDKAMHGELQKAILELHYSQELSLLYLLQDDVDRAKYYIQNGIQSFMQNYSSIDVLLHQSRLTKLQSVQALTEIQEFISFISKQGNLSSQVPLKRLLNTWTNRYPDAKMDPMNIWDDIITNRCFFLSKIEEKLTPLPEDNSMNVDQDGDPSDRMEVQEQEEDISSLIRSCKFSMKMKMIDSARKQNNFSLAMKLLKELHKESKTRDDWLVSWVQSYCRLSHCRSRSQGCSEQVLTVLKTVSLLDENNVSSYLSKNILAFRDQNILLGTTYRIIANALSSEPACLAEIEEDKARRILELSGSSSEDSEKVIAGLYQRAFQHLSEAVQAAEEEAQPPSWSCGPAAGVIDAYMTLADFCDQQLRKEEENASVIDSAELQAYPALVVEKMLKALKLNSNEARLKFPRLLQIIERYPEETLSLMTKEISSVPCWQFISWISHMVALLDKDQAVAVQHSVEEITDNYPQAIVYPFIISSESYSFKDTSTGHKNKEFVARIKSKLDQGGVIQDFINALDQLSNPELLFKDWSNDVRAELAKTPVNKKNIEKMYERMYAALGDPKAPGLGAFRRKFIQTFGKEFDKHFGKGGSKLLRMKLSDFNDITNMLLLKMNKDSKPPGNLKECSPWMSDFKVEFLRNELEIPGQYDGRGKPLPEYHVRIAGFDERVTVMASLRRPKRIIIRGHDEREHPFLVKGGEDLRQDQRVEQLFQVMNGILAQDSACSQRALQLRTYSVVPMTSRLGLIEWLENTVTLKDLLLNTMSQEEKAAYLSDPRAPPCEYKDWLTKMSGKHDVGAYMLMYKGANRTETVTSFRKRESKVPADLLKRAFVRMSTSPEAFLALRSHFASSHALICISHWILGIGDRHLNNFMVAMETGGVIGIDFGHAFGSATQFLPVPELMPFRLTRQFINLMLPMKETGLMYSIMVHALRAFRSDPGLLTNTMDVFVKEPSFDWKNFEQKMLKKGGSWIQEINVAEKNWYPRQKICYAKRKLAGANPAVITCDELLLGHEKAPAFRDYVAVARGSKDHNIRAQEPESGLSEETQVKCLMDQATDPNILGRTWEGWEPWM

The target in one assay is T1, Phosphatidylinositol 4,5-bisphosphate 3-kinase catalytic subunit delta isoform (Homo sapiens) (UniProt O00329).
T1 sequence (whole entry): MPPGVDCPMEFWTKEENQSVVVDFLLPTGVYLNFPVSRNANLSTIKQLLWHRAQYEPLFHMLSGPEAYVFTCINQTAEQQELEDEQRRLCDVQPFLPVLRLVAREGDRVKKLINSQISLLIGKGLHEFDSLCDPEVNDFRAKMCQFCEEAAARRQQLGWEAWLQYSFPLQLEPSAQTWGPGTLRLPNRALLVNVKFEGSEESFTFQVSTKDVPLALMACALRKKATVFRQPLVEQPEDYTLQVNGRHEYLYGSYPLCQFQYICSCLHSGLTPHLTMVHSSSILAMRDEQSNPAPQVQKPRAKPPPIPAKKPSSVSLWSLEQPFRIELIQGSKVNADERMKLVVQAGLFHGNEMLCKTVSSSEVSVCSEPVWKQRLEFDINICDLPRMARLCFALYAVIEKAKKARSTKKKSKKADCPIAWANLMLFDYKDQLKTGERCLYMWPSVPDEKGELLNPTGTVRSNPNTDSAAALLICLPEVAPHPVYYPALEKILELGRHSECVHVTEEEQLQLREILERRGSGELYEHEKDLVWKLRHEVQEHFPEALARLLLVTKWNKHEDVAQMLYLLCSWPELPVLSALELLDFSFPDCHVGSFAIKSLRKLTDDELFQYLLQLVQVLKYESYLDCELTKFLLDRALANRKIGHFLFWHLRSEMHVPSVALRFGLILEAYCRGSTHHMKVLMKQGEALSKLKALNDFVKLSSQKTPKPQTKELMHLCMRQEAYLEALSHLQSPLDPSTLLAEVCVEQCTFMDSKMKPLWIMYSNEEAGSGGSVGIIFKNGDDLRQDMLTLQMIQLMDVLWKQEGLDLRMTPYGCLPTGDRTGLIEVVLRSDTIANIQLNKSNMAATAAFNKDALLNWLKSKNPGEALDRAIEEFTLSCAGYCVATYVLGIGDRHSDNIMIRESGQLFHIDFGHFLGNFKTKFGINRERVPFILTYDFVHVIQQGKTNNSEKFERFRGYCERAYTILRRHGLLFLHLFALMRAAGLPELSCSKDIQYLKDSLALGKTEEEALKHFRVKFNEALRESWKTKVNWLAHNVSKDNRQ
The assay can be described thus: Inhibition of PI3Kdelta (unknown origin) at 10 uM relative to control.
For `Cc1cc(C(C)Nc2ccccc2)c2oc(N3CCOCC3)nc(=O)c2c1` (stereo unspecified), the inhibition was determined as 87%.

The target of the next assay is Phosphatidylinositol 4,5-bisphosphate 3-kinase catalytic subunit beta isoform (Homo sapiens, UniProt P42338). The assay can be described thus: Inhibition of PI3Kbeta (unknown origin) incubated for 60 mins in the presence of ATP by Kinase-Glo luminescence assay.
Phosphatidylinositol 4,5-bisphosphate 3-kinase catalytic subunit beta isoform, sequence (P42338 whole entry, canonical isoform): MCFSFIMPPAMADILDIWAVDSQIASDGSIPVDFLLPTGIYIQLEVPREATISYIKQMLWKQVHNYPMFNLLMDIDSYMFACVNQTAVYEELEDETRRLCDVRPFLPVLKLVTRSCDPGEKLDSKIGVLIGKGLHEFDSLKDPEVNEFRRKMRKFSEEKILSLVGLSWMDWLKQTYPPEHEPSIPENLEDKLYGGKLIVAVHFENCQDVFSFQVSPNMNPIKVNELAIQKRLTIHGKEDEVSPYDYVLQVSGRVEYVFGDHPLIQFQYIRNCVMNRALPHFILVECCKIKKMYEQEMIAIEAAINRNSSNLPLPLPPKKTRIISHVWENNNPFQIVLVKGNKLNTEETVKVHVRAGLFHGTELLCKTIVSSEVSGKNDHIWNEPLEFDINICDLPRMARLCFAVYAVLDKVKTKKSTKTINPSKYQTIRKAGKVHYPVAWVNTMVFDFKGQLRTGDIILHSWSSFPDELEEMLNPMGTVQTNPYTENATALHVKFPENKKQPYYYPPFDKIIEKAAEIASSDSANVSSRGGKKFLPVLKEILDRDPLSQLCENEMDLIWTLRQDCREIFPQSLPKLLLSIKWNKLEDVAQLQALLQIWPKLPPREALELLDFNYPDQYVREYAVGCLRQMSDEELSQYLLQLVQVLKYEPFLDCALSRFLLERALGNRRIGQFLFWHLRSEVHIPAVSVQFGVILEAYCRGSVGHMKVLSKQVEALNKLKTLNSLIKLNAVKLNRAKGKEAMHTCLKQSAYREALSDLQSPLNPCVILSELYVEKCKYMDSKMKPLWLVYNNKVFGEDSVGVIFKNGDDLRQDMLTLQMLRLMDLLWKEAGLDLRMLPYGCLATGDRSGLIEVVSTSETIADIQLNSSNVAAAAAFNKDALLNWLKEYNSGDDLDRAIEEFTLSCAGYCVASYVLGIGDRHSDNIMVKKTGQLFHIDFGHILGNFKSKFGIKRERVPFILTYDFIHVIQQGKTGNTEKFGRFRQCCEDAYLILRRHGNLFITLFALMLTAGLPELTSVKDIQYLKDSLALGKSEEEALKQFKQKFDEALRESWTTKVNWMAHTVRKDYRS
As to `Cc1cc(C(C)Nc2c(F)cccc2F)c2oc(N3CCOCC3)nc(=O)c2c1` (stereo unspecified), the IC50 is 1220 nM.

As to `Cc1cc(C(C)Nc2ccccc2)c2oc(N3CCOCC3)nc(=O)c2c1` (stereo unspecified), the concentration for half-maximal inhibition (IC50) was 240 nM.

`COc1ccc(OC(C)c2cc(C)cc3c(=O)nc(N4CCOCC4)oc23)cc1` (stereo unspecified): the concentration for half-maximal inhibition (IC50) was over 20000 nM.

With `Cc1cc(C(C)Oc2cc(C)c(Cl)c(C)c2)c2oc(N3CCOCC3)nc(=O)c2c1` (stereo unspecified), the IC50 was over 20000 nM.

For `COc1cccc(OC(C)c2cc(C)cc3c(=O)nc(N4CCOCC4)oc23)c1` (stereo unspecified), the IC50 is 1880 nM.

With `Cc1cc(C(C)Nc2cc(F)cc(F)c2)c2oc(N3CCOCC3)nc(=O)c2c1` (stereo unspecified), the IC50 was 152 nM.

With `Cc1cc(C(C)Oc2ccc(Cl)c(C)c2)c2oc(N3CCOCC3)nc(=O)c2c1` (stereo unspecified), the half-maximal inhibitory concentration (IC50) is over 20000 nM.

With `Cc1cc(C(C)Nc2ccccc2Cl)c2oc(N3CCOCC3)nc(=O)c2c1` (stereo unspecified), the half-maximal inhibitory concentration (IC50) is 136 nM.

With `Cc1ccc(OC(C)c2cc(C)cc3c(=O)nc(N4CCOCC4)oc23)cc1` (stereo unspecified), the IC50 is over 20000 nM.

Regarding `Cc1cc(C(C)Oc2ccccc2)c2oc(N3CCOCC3)nc(=O)c2c1` (stereo unspecified), the IC50 came to 1430 nM.

Take `Cc1cc(C(C)Nc2ccc(F)cc2F)c2oc(N3CCOCC3)nc(=O)c2c1` (stereo unspecified): the 50% inhibitory concentration (IC50) stood at 281 nM.

`Cc1cc(C(C)Nc2cccc(Cl)c2)c2oc(N3CCOCC3)nc(=O)c2c1` (stereo unspecified): the half-inhibitory concentration (IC50) was found to be 72.7 nM.

In the case of `Cc1cccc(OC(C)c2cc(C)cc3c(=O)nc(N4CCOCC4)oc23)c1` (stereo unspecified), the IC50 was found to be 2440 nM.

Turning to `Cc1cc(C(C)Oc2ccccc2C)c2oc(N3CCOCC3)nc(=O)c2c1` (stereo unspecified), the IC50 turned out to be 227 nM.

As for `Cc1cc(C(C)Nc2cccc(Cl)c2F)c2oc(N3CCOCC3)nc(=O)c2c1` (stereo unspecified), the IC50 was determined as 272 nM.

For `Cc1cc(C(C)Nc2cc(F)ccc2F)c2oc(N3CCOCC3)nc(=O)c2c1` (stereo unspecified), the concentration for half-maximal inhibition (IC50) was found to be 70 nM.

On to `Cc1cc(C(C)Nc2cccc3ccccc23)c2oc(N3CCOCC3)nc(=O)c2c1` (stereo unspecified), for which the IC50 is 49.2 nM.

Turning to `Cc1cc(C(C)Nc2ccc(F)c(F)c2)c2oc(N3CCOCC3)nc(=O)c2c1` (stereo unspecified), the IC50 worked out at 62.7 nM.

Take `Cc1cc(C(C)Nc2ccc(Br)cc2)c2oc(N3CCOCC3)nc(=O)c2c1` (stereo unspecified): the IC50 was 12600 nM.

Another assay concerns the target DNA-dependent protein kinase catalytic subunit (Homo sapiens, UniProt P78527). The assay can be described thus: Inhibition of DNA-PK (unknown origin) in the presence of ATP.
For `Cc1cc(C(C)Nc2ccccc2)c2oc(N3CCOCC3)cc(=O)c2c1` (stereo unspecified), the half-inhibitory concentration (IC50) turned out to be 120 nM.

For the origin of these results see ChEMBL document CHEMBL5113448, “Synthesis and biological evaluation of 4H-benzo[e][1,3]oxazin-4-ones analogues of TGX-221 as inhibitors of PI3Kβ” (Bioorg Med Chem, 2022).
